Experiment [1] deals with T84 cells (GC-C). In words: Intact T84 cell cGMP accumulation assay. The format is cell-based, Human. The conditions noted are these: for activity in the cGMP accumulation assay: FIG. 22, compared to STa peptide; for CGMP accumulation assay: graded activity/potency, T84 cells. On the set-up: key to CGMP accumulation assay: 1+ (lowest activity/potency); ++: Results are graded from 1+ (lowest activity/potency) to 5+ (highest activity/potency); +++: Results are graded from 1+ (lowest activity/potency) to 5+ (highest activity/potency); ++++: Results are graded from 1+ (lowest activity/potency) to 5+ (highest activity/potency); +++++: 5+ (highest activity/potency). As for the experimental part:
The intact T84 cell assay was used to detect the accumulation of cGMP, the product of agonism, upon interaction with a compound (Visweswariah et al., 1992). Human colorectal adenocarcinoma T84 cells were grown to confluence in a 24 well plate using DMEM/F12 medium supplemented with 10% FBS. The media was aspirated from each well and the cells were washed three times with Dulbecco's PBS (1×, no Ca2+ or Mg2+). The cells were then incubated for 30 minutes at 37° C. with 1 mM […] (IBMX) in Optimem medium (no FBS), either with or without potential antagonists. After incubation under these conditions, a 10× concentrated stock of a known GC-C agonist (e.g., STa (5-18)) in PBS was added to each well and the incubation continued for an additional 15 min at 37° C.
The reaction was stopped by the addition of 200 μL of Passive Lysis Buffer (Promega) to each well. The supernatant was removed for cGMP quantitation by RIA using ^125I-labeled cGMP 54 antibody relative to an external cGMP standard curve. The cells were scraped from the surface for protein content determination using a BioRad Protein Assay.

The nature of experiment [2]: Mouse intestinal secretion assay (suckling mouse assay). The format is in vivo. On the set-up: key to Mouse intestinal secretion assay (suckling mouse): 1+ (lowest activity/potency); ++: Results are graded from 1+ (lowest activity/potency) to 5+ (highest activity/potency); +++: Results are graded from 1+ (lowest activity/potency) to 5+ (highest activity/potency); ++++: Results are graded from 1+ (lowest activity/potency) to 5+ (highest activity/potency); +++++: 5+ (highest activity/potency). As to conditions: for Mouse intestinal secretion assay (suckling mouse): graded activity/potency. As for the experimental part: A relevant disease model is the suckling mouse model in which STa (5-18) is deposited into the stomach of 3-4 day old mice, and the accumulation of fluid in their intestines is determined gravimetrically (Parkinson et al., 1994). All GCC peptides were formulated to the desired concentration in Dulbecco's PBS (1×, No Ca++, no Mg++) containing […] immediately prior to dosing. Proteinase inhibitors were prepared as stock solutions in PBS and added to dosing solutions by serial dilution, as needed. The dosing solution (50 μL) was delivered into the stomachs of 2-4 day old mice (3 per dosing group) using a plastic tube attached to the needle of a 1 mL tuberculin syringe. After 3 hours, the animals were sacrificed and dissected to determine the individual weights of the intestines and the rest of the carcass, respectively.

Experiment [3] deals with T1, GC-C (Mus musculus, UniProt Q3UWA6).
T1 construct: freshly prepared mouse intestine membranes; from tissue; host or cells: mouse intestine (membrane preparation)
T1 sequence (Q3UWA6 20-1072): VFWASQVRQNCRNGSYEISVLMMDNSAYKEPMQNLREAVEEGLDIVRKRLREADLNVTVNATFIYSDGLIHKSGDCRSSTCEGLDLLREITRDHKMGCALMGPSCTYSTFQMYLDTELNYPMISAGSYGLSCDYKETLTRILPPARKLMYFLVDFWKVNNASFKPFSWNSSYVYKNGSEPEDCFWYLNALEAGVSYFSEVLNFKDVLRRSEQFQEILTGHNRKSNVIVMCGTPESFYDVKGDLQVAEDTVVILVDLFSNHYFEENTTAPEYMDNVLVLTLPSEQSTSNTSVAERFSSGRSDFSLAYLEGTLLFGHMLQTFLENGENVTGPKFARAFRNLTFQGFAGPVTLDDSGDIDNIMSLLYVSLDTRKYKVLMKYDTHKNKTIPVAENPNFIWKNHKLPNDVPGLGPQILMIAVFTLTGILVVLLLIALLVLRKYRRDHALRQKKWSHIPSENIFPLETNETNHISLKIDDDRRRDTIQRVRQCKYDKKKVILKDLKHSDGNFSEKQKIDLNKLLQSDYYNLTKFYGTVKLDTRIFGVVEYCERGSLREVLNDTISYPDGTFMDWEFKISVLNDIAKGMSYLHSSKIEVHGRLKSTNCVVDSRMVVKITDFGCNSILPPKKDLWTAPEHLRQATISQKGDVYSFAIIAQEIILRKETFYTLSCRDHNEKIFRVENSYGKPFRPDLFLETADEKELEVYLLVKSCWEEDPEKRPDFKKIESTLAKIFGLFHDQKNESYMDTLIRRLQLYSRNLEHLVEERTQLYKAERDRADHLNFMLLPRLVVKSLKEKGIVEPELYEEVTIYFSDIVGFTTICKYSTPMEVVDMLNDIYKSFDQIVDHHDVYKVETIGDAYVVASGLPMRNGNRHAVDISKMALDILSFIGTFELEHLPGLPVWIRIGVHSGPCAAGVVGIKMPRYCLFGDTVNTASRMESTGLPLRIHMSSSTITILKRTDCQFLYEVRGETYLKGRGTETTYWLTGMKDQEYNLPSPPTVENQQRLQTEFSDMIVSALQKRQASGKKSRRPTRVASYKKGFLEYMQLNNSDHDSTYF
The experiment can be described thus: Intestinal membrane 125I-STa competitive radioligand binding assay. Further details: key to I-125 binding assay: 1+ (lowest activity/potency); ++: Results are graded from 1+ (lowest activity/potency) to 5+ (highest activity/potency); +++: Results are graded from 1+ (lowest activity/potency) to 5+ (highest activity/potency); ++++: Results are graded from 1+ (lowest activity/potency) to 5+ (highest activity/potency); +++++: 5+ (highest activity/potency). As to conditions: for I-125 binding assay: graded activity/potency, mouse intestinal membranes. Here is the method:
Intestinal membrane 1-125 labeled radioligand binding assay. The intestinal membrane radioligand binding assay was used to assess whether a novel compound could displace ^125I-STa from GC-C (Crane et al., 1992). Each analog was analyzed for its ability to displace ^125I-STa from GC-C in a competitive binding assay. ^125I-ST Displaced” was determined by co-incubating STa analogs (10 μM) with 50,000 DPM of ^125I-STa (1-18) in the presence of mouse intestinal membranes. The displacement (n=3) for each analog was determined relative to a vehicle control.
Membranes were prepared from freshly harvested mouse intestines by first washing away the blood or feces with ice-cold Dulbecco's PBS. Washed organs were minced with a single-edged razor blade, followed by homogenization on ice in 50 mM Tris, pH 7.6, containing 1 mM EDTA, 1 mM PMSF, 1 mM DTT. Debris was then removed by a 15 minute centrifugation at 3,000×G and 4° C. The supernatant is then passed through successively smaller needles (18 gauge through 25 gauge) and frozen at −70° C. until used as a tissue homogenate. If intended for use as isolated membranes, the above homogenate was centrifuged (100,000×G) at 4° C. for 1 hour while fresh and the pellet was re-suspended in homogenization buffer.
The assay was performed in 96 well filter plates which were pre-incubated overnight with 200 μl of 0.3% polyethylenimine (w/v) and washed three times by aspiration with 300 μl of Wash Buffer (150 mM NaCl, 20 mM Sodium Phosphate pH=7.2, 1 mM EDTA) immediately before use. Into each well of was added 50 μl of 3× Binding buffer (150 mM Tris-HCl pH=7.6, 1.98 mM Cysteamine, 0.3% Bacitracin, 1350 mM NaCl, 3 mM EDTA), 40 μl of double-distilled water, 10 μl of either double-distilled water or cold ligand (50 uM STa (5-18) in double-distilled water), 10 μl of increasing concentrations (125 DPM/ul to 50,000 DPM/ul) of radiolabeled 125I -STa (1-18) and finally 40 μl (approximately 2 mg protein/ml) of freshly prepared mouse intestine membranes. The plates were then incubated with mixing at 37 C for two hr, washed successively with six 200 μl aliquots of Wash Buffer and aspirated to dryness. The filter bottoms of each well were punched into individual borosilicate tubes and bound radioactivity determined in a gamma counter. Protein content was determined on an aliquot of the mouse intestine membranes used in the Biorad Protein Assay.

[4] abbreviates: FIG. 20, compared to ST peptide.
Where [5] appears, read: FIG. 21, compared to linaclotide.

In the case of “H2N Cys Cys Glu Leu Cys Cys Asn Dhp Ala Cys Ala Gly Cys Tyr COOH (CCELCCNXACAGCY; not fully specified; non-natural residue Dhp; Modified Amino Acid (8)..(8): Xaa8 = Dhp = 3,4,-dihydro-Proline, D-Pro 3,4-Dehydroproline) [Peptide A]”, the “activity in the cGMP accumulation assay” value in experiment [1] and in experiment [1] (second experiment) was “higher than the STa peptide” each time. The CGMP accumulation assay result in experiment [1] was “+++++”. Also, the “activity in the mouse intestinal secretion assay” value in experiment [2] (FIG. 24, compared to linaclotide) is listed as “better activity than linaclotide”; in experiment [2] (FIG. 25, compared to STa peptide) it was “higher activity than the STa peptide”; in experiment [2] (FIG. 26, compared to STa), “higher activity than STa”. The “Mouse intestinal secretion assay (suckling mouse)” value in experiment [2] is on record as “+++++”. Also, the “activity in the I-125 labeled radioligand binding assay” value in experiment [3] (FIG. 18, compared to STa) is “better activity than STa”; in experiment [3] (FIG. 19, compared to linaclotide), “superior activity compared to linaclotide”; in experiment [3] (setting [4]) it was “superior to ST peptide”; in experiment [3] (setting [5]), “superior to linaclotide”. Also, in experiment [3], the I-125 binding assay entry is “+++++”.
“H2N Cys Cys Glu Leu Cys Cys Asn Thz Ala Cys Ala Gly Cys Tyr COOH (CCELCCNXACAGCY; not fully specified; non-natural residue Thz; Modified Amino Acid (8)..(8): Xaa8 = Thz = Thiazolidine (4-thiazolidine-2-carboxylic acid), Tzd) [Peptide D]”: the CGMP accumulation assay result in experiment [1] is reported as “+++++”. Besides, the “activity in the cGMP accumulation assay” value in experiment [1] (second experiment) is reported as “higher than the STa peptide”. Further, the “activity in the mouse intestinal secretion assay” value in experiment [2] (FIG. 26, compared to STa) is “higher activity than STa”. Also, the “Mouse intestinal secretion assay (suckling mouse)” value in experiment [2] was “+++++”. Further, in experiment [3] (setting [4]), the “activity in the I-125 labeled radioligand binding assay” value is “superior to ST peptide”. Also, the I-125 binding assay result in experiment [3] is reported as “+++++”.
Regarding “H2N Cys Cys Glu L-Thr Cys Cys Asn Pro Ala Cys Ala Gly Cys Tyr COOH (H-CCETCCNPACAGCY-OH; not fully specified (bridges); printed as Cys Cys Glu Thr Cys Cys Asn Pro Ala Cys Ala Gly Cys Tyr; cysteine pairing not given here) [Peptide B]”, the CGMP accumulation assay result in experiment [1] is recorded as “+++”. Further, in experiment [1] (second experiment), the “activity in the cGMP accumulation assay” value is listed as “lower than the STa peptide”. Further, in experiment [2] (FIG. 26, compared to STa), the “activity in the mouse intestinal secretion assay” value is “lower activity”. In experiment [2], the “Mouse intestinal secretion assay (suckling mouse)” value is on record as “+++”. The “activity in the I-125 labeled radioligand binding assay” value in experiment [3] (FIG. 18, compared to STa) is on record as “activity comparable to STa”. Also, the I-125 binding assay entry in experiment [3] is on record as “++++”.
As for “H2N Cys Cys Glu Leu Cys Cys Asn HyPro Ala Cys Ala Gly Cys Tyr COOH (CCELCCNXACAGCY; not fully specified; non-natural hydroxy residue; Modified Amino Acid (8)..(8): Xaa8 = HyPro = Hydroxy-Proline, Hyp, Hydroxyproline) [Peptide C]”, the CGMP accumulation assay entry in experiment [1] is listed as “+++”. Besides, the “activity in the cGMP accumulation assay” value in experiment [1] (second experiment) was “lower than the STa peptide”. For the same substance, the “activity in the I-125 labeled radioligand binding assay” value in experiment [3] (setting [4]) is listed as “comparable to ST peptide”; in experiment [3] (setting [5]) it was “lower than linaclotide”. Moreover, the I-125 binding assay result in experiment [3] is “++”.

The record behind these values is US8748575B2, “Therapeutic peptides” (Combimab, Inc., priority 2010, dated 2014).
